{"source": "patent US12110287B2", "about": "“Heterocyclic derivatives as Nav1.7 and Nav1.8 blockers” (RaQualia Pharma Inc., priority 2018, dated 2024)", "key": {"Nav1.7 [1]": {"molecular_target": "T1, Nav1.7 (Homo sapiens, UniProt Q15858)", "T1 sequence (Q15858 whole entry)": "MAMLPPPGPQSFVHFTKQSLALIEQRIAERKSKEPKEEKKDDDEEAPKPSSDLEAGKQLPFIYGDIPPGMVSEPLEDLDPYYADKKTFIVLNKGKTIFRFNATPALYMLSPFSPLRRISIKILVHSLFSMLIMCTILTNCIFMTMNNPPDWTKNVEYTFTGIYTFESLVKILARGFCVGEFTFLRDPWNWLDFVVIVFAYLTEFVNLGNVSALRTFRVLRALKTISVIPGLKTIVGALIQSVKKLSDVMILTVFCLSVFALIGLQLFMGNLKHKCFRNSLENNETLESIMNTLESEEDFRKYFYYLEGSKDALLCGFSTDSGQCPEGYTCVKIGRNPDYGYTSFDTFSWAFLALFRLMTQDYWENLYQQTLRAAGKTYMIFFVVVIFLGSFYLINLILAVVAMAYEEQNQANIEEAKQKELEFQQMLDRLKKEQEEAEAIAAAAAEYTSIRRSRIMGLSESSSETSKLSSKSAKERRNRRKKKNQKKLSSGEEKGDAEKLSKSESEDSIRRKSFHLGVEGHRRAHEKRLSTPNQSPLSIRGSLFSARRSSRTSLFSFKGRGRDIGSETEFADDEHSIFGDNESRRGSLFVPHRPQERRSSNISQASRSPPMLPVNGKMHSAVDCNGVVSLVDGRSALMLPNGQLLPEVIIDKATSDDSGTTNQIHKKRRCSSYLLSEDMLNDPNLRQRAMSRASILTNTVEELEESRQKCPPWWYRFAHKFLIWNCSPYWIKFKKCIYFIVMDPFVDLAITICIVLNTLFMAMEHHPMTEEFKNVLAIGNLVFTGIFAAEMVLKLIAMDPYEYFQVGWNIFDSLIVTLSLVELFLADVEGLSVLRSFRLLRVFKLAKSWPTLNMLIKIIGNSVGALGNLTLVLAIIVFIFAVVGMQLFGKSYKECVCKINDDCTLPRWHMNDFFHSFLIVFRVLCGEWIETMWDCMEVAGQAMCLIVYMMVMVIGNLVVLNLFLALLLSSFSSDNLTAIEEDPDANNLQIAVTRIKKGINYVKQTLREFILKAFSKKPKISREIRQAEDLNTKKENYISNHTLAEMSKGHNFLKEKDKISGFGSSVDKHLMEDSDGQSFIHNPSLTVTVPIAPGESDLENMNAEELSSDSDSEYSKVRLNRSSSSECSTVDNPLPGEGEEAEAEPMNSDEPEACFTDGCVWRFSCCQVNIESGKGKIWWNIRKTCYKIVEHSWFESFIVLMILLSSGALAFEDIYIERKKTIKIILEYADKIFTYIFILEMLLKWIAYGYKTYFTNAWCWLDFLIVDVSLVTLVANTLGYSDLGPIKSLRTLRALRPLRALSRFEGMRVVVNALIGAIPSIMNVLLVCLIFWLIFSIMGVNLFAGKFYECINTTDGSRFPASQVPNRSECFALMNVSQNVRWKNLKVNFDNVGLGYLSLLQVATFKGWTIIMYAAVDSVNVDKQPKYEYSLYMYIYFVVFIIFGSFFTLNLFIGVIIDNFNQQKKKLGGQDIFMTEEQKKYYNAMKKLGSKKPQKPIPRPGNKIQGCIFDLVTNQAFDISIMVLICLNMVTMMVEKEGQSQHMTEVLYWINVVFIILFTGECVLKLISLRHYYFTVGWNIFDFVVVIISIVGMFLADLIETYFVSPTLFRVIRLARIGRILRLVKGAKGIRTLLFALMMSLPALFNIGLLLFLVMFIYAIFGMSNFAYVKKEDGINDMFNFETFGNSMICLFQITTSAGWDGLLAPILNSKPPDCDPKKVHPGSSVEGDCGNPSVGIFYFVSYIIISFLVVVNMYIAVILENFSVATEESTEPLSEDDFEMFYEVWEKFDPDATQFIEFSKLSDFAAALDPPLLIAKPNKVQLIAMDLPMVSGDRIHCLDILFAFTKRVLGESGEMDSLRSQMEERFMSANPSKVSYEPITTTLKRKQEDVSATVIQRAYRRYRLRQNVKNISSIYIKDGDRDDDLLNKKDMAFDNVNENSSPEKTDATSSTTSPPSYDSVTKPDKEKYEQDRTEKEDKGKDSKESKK", "experiment": "EFS-FRET assay", "format": "cell-based", "parameters": "expressed in transfected cells; host or cells: CHO (Chinese hamster ovary) cells", "conditions": "CHO cells expressing human Nav1.7 channels, read-out: IC50 against Nav1.7", "method": "This screen is used to determine the effects of compounds on human Nav1.7 channels, utilizing electrical field stimulation (EFS) system in 96-well plate format on FDSS (Hamamatsu Photonics) platform. The changes of membrane potential are monitored with FRET dye pair, DiSBAC2(3) and PTS18.\nCHO (Chinese hamster ovary) cells expressing human Nav1.7 channels are grown in T225 flasks, in a 5% CO2 humidified incubator to about 80% confluence. Media composition consists of HAM/F12 with Glutamax I, 10% FCS, 100 units/mF penicillin and 100 microgram/mF hygromycin.\n• Seed each cell lines (1×10^5 cells/well) into 96-well plates prior to experimentation. • Incubate at 37° C. in 5% CO2 for 24 hours. • Wash each well with assay buffer (140 mM NaCl, 4.5 mM KCl, 10 mM D-Glucose, 2 mM CaCl2, 1 mM MgCl2, 10 mM HEPES, pH 7.4 adjusted with NaOH) twice. • Add 1st loading solution containing 10 microM PTS18 and 0.06% Pluronic F-127 in assay buffer. • Incubate the plate at rt in dark for 1 hour. • Remove 1st loading solution and add 2nd loading solution containing 12.5 microM DiSBAC2(3), 1.25 mM Xylene Fast Yellow and 0.0075% Pluronic F-127 in assay buffer. • Place the plate under the dark at rt for 25 minutes. • Add compound solutions into the assay plate. • Set the assay plate in FDSS and place an EFS device on the plate. • Measure EFS-induced fluorescent response by FDSS.\nThe data are analyzed and reported as normalized ratios of intensities measured at […]. The process of calculating these ratios is performed as follows:\nThis analysis is performed using a computerized specific program designed for FDSS generated data. Fluorescence ratio values are plotted using XLfit to determine an IC50 value for each compound."}, "Nav1.7 [2]": {"molecular_target": "T1, Nav1.7", "experiment": "Electrophysiology assay (whole cell patch clamp), affinity to inactivated state", "format": "cell-based", "parameters": "expressed in transfected cells", "conditions": "affinity to inactivated state (Kinact), read-out: activity (Ki) against Nav1.7", "method": "Whole cell patch clamp recording is used to assess the efficacy or selectivity of Na (Sodium) channel blocker on human voltage gated sodium channels. Na channel expressing cells are dissociated by 0.05% Trypsin-EDTA or Accutase, and then seeded on cover glass for 2-24 hours.\nManual patch clamp recordings are conducted at rt using the voltage-clamp amplifier (Axon Instruments or HEKA electronik). Electrodes are pulled with P-97 electrode puller (Sutter Instrument). The electrode resistances are 1-3 MOhm when intercellular solution is filled. Currents are lowpass filtered between 2-5 kHz and digitally sampled at 10 kHz. […]\nAfter whole-cell configuration is achieved, cell is monitored at least 10 minutes to allow cell dialysis with pipette solution. […]\nPeak currents evoked by Test 1 and Test 2 pulses are sampled with Clampex (Axon Instruments) or Pulse+Pulse Fit (HEKA). Averaged peak currents under vehicle or test compounds are calculated from 3 data points at end of each condition.\nInhibitory effects (% inhibition) on peak currents at Test 1 or Test 2 pulse are plotted against test concentration and IC50 values at Test 1 (Closed IC50) or Test 2 (Inactivated IC50) are calculated with Hill equation, respectively. […]\nAfter whole-cell configuration is achieved, the cell is monitored at least 10-15 minutes to allow cell dialysis with pipette solution. […]"}}, "note": "pIC50, pKi: −log10 of the molar value."}
{"smiles": "O=C(N[C@@H]1CCCN(c2ncc(C(F)(F)F)cc2Cl)C1)c1ccnc(NC(=O)C2CC2)c1", "note": "[Example 7]", "values": [{"measurement": "pIC50", "setting": "Nav1.7 [1]", "result": "> 6.30"}, {"measurement": "pKi", "setting": "Nav1.7 [2]", "result": "> 6.70"}]}
